In Sander's compilation of Henry's law constants (doi:10.1021/jf001510f):

test: Henry solubility constant Hcp at 310 K (mol/(m3 Pa)); details: reference: van Ruth et al. (2001)

SMILES	Henry solubility constant Hcp at 310 K
CCCCCCC=O [heptanal]	0.011
CCCCCC(C)=O [2-heptanone]	0.025
CCCCCCCC(C)O (stereo not given) [2-nonanol]	0.069
CCCC(C)O (stereo not given) [2-pentanol]	0.23
CCOC(C)=O [ethyl ethanoate]	0.03
CSC [dimethyl sulfide]	0.0049
CCCCCCCCC(C)=O [2-decanone]	0.015
CCCCOC(C)=O [butyl ethanoate]	0.017
CC(C)CCO [3-methyl-1-butanol]	0.32
CCCC(=O)OCC [ethyl butanoate]	0.016
CCCO [1-propanol]	0.65
CCCCCCC(C)=O [2-octanone]	0.018
CCCOC(C)=O [propyl ethanoate]	0.018
CCCCCCO [1-hexanol]	0.16
CCCCCCCC=O [octanal]	0.0088
